# Tests used:
# ATF4 = ATF4 expression inhibition assay (ATF4 luciferase reporter); assay type: cell-based; settings: Homo sapiens, HEK-293T; HEK293T cells carrying the ATF4 luciferase reporter, 100 nM thapsigargin (Tg), 3 hours; read-out: ATF4 inhbition IC50
# Experimental: The ATF4 reporter was prepared by fusing the human full length 5′UTR of ATF4 (NCBI Accession No. BC022088.2) upstream of the firefly luciferase coding sequence lacking the initiator methionine. The fused sequence was cloned into pLenti-EF1a-C-Myc-DDK-IRES-Puro cloning vector (Origen # PS 100085) using standard methods. Virus production was carried out by using Lenti-X™ Packaging Single Shots Protocol (Clonetech #631276). Viral particles were used to transduce HEK293T cells (ATCC # CRL-3216, ATCC Manassas, Va.), which were subsequently selected with puromycin to generate stable cell line. Cells were maintained at 37° C. and 5% CO2 in DMEM-F12 (Hyclone # SH30023.02) supplemented with 10% heat-inactivated fetal bovine serum (Gibco #16000-044), 2 mM L-glutamine (Gibco #25030-081), 100 U/ml penicillin, and 100 μg/ml streptomycin (Gibco #15140-122).
# HEK293T cells carrying the ATF4 luciferase reporter were plated on 96-well plates (Nunc) at 10,000 cells per well. Cells were treated two days after seeding with 100 nM thapsigargin (Tg) (Sigma-Aldrich # T9033) in the presence of different concentrations of selected compounds ranging from 1 nM to 10 μM. Cells without treatment or cells treated with Tg alone were used as controls. Assay plates containing cells were incubated for 3 hours at 37° C.
# Luciferase reactions were performed using Luciferase Assay System (Promega # E1501) as specified by the manufacturer. Luminescence was read with an integration time of 1 s and a gain of 110 using a Cytation-5 multi-mode microplate reader (BioTek). Relative luminescence units were normalized to Tg treatment (0% inhibition) and untreated cells (100% inhibition) and the percentage of ATF4 inhibition was calculated.
# Accordingly, inhibition of ATF4 expression as a result of the test compound indicates suppression of the ISR pathway.
# [1] = tested on: Chinese hamster ovary (CHO) cells; experiment: Protein translation assay (puromycin labelling, western blot); assay type: cell-based; settings: 2 hours, media alone = 100%; for activity at 1 µM: Cricetulus griseus, unstressed CHO cells (without Tg), 1 μM test compound, read-out: % Protein synthesis relative to untreated (1 μM test compound); for % Recovery of protein synthesis (1 μM test compound): stressed CHO cells, 300 nM Tg, Tg alone = 0%
# Experimental: Chinese hamster ovary (CHO) cells were maintained at 37° C. and 5% C02 in Dulbecco's Modified Eagle's Media (DMEM) supplemented with 10% fetal bovine serum, 2 mM L-glutamine, 100 U/ml penicillin, and 100 μg/ml streptomycin. After reaching 80% of confluence, cells were detached and seeded on 6 well plates in complete media, allowed to recover overnight and treated for 2 hours with 1 μM of the test compound (to assess protein synthesis levels in unstressed condition), or for 2 hours with 300 nM Tg in the presence of 1 μM of the test compound (to assess the recovery of protein synthesis in a stressed condition). Cells with Tg alone were used as controls.
# After the 2 hours treatments, media were replaced by adding 10 μg/ml puromycin (Sigma Aldrich # P8833) in complete media for 30 min. Media were removed and cells were lysed with SDS-PAGE lysis buffer. Lysates were transferred to 1.5 ml tubes and sonicated for 3 min and total protein amount were quantified using BCA Protein Assay Kit (Pierce). Equal amount of protein (30 μg) was loaded on SDS-PAGE gels. Proteins were transferred onto 0.2 μm PVDF membranes (BioRad) and probed with primary antibodies diluted in Tris-buffered saline supplemented with 0.1% Tween 20 (Merck # S6996184 505) and 3% bovine serum albumin (Rockland # BSA-50).
# Puromycin (12D10) (Merck # MABE343) and β-actin (Sigma Aldrich # A5441) antibodies were used as primary antibody. A HRP-conjugated secondary antibody (Rockland) was employed to detect immune-reactive bands using enhanced chemiluminescence (ECL Western Blotting Substrate, Pierce). Quantification of protein bands was done by densitometry using ImageJ software.
# Percent increase of protein synthesis in unstressed cells (without Tg treatment) in the presence of media alone or certain test compounds is shown in Table 3. The percentage levels were normalized to the media alone condition, which correspond to 100% protein synthesis.
# Percent recovery of protein synthesis in stressed cells (with Tg treatment) due to the test compounds at 1 μM is also shown in Table 3. The levels were normalized to the media alone and Tg alone conditions, which correspond to 100% and 0% respectively.
SMILES,IC50 (ATF4) [µM],activity at 1 µM [1] [%],% Recovery of protein synthesis (1 μM test compound) [1] [%]
"O=C(NC1CCN(CC(O)COc2ccc(Cl)c(F)c2)C1)c1cc2cc(Cl)ccc2o1 (stereo not drawn) [Compound 98, 5-chloro-N-(1-(3-(4-chloro-3-fluorophenoxy)-2-hydroxypropyl)pyrrolidin-3-yl)benzofuran-2-carboxamide]",> 0.1,167,142.63
"O=C(COc1ccc(Cl)c(F)c1)NC1CCN(CC(O)COc2ccc(Cl)c(F)c2)C1 (stereo not drawn) [Compound 99, 2-(4-chloro-3-fluorophenoxy)-N-(1-(3-(4-chloro-3-fluorophenoxy)-2-hydroxypropyl)pyrrolidin-3-yl)acetamide]",> 0.1,67.7,0.00
"O=C(COc1ccc(Cl)c(F)c1)NC1CCN(CCCOc2ccc(Cl)c(F)c2)C1 (stereo not drawn) [Compound 100, 2-(4-chloro-3-fluorophenoxy)-N-(1-(3-(4-chloro-3-fluorophenoxy)propyl)pyrrolidin-3-yl)acetamide]",> 0.1,69.1,0.00
"O=C(NC1CCN(CCCOc2ccc(Cl)c(F)c2)C1)c1cc2cc(Cl)ccc2o1 (stereo not drawn) [Compound 101, 5-chloro-N-(1-(3-(4-chloro-3-fluorophenoxy)propyl)pyrrolidin-3-yl)benzofuran-2-carboxamide]",> 0.1,93.2,86.10
